In ChEMBL document CHEMBL4342482 (ACS Med Chem Lett, 2020):
Activity calls are given as the source filed them. No cut-off for these calls is given here.

What was measured:
[1] = target: T1, Phosphatidylinositol 3,4,5-trisphosphate 5-phosphatase 2 (Homo sapiens) (UniProt O15357); assay: Substrate activity at recombinant human N-terminal His-tagged SHIP2 (419 to 832 residues) expressed in Escherichia coli Rosetta2 (DE3) cells assessed as 5-OH-Bz(1,2,4)P3 product formation at 100 uM incubated for 2 hrs with 100 nM to 1 mM of SHIP2 by fluorescence based HPLC analysis
T1 sequence (whole entry): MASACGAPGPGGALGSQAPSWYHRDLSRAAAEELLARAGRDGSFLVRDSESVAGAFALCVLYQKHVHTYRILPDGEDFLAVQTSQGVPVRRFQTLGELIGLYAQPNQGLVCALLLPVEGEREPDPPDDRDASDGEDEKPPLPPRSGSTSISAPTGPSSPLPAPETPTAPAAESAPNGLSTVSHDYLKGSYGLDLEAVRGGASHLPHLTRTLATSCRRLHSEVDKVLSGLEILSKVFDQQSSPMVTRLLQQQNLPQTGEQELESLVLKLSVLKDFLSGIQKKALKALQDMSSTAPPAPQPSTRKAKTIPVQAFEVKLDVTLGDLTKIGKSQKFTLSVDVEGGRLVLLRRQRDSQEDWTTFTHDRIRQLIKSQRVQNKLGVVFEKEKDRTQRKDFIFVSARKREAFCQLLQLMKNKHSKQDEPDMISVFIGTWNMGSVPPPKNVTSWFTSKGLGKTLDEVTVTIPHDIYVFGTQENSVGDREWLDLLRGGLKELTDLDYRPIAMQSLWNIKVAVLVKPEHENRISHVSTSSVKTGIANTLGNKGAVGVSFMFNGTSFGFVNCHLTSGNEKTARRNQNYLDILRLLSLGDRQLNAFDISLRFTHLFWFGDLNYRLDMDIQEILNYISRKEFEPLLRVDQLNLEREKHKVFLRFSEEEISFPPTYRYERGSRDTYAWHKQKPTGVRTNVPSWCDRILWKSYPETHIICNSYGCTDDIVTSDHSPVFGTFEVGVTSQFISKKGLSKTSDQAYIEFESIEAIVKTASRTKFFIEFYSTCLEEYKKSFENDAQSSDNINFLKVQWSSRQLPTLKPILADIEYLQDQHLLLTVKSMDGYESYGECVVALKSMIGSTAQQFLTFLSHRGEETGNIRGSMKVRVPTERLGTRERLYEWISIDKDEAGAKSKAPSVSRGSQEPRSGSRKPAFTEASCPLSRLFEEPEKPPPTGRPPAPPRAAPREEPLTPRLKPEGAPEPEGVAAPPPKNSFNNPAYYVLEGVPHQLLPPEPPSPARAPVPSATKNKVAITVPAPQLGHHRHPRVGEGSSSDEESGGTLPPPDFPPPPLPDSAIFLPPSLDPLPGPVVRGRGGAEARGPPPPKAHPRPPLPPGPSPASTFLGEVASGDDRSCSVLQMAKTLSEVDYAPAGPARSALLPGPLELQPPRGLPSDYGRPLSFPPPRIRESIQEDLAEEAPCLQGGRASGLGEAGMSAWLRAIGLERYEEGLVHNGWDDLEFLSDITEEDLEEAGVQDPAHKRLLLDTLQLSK

[2] = target: T2, Inositol polyphosphate-5-phosphatase A (Homo sapiens, UniProt Q14642); assay: Inhibition of recombinant human brain INPP5A expressed in Escherichia coli incubated for 10 mins by malachite green reagent based phosphate assay
T2 sequence (Q14642 whole entry): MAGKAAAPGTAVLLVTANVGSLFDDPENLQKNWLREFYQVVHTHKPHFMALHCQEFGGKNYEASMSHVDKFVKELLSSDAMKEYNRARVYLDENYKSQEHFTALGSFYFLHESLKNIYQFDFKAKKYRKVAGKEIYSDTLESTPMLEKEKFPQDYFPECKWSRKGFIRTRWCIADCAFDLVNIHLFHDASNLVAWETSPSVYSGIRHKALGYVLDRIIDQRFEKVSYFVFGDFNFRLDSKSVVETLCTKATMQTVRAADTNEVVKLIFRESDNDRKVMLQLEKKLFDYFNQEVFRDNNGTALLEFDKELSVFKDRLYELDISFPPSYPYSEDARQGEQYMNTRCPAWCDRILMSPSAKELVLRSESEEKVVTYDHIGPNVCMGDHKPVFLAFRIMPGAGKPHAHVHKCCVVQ

[3] = target: T3, Phosphatidylinositol 3,4,5-trisphosphate 5-phosphatase 2 (Homo sapiens, UniProt O15357); assay: Displacement of 2FAMInsP5 from recombinant human N-terminal His-tagged SHIP2 (419 to 832 residues) expressed in Escherichia coli Rosetta2 (DE3) cells by fluorescence polarization assay
T3 sequence (O15357 whole entry): T1 sequence (whole entry)

[4] = target: T1, Phosphatidylinositol 3,4,5-trisphosphate 5-phosphatase 2 (Homo sapiens); assay: Substrate activity at recombinant human N-terminal His-tagged SHIP2 (419 to 832 residues) expressed in Escherichia coli Rosetta2 (DE3) cells assessed as 5-OH-Bz(1,2,4)P3 product formation at 100 uM incubated for 12 hrs by fluorescence based HPLC analysis
[5] = target: T1, Phosphatidylinositol 3,4,5-trisphosphate 5-phosphatase 2 (Homo sapiens); assay: Substrate activity at recombinant human N-terminal His-tagged SHIP2 (419 to 832 residues) expressed in Escherichia coli Rosetta2 (DE3) cells assessed as 5-OH-Bz(1,2,4)P3 product formation at 100 uM incubated for 2 hrs by fluorescence based HPLC analysis
[6] = target: T1, Phosphatidylinositol 3,4,5-trisphosphate 5-phosphatase 2 (Homo sapiens); assay: Substrate activity at recombinant human N-terminal His-tagged SHIP2 (419 to 832 residues) expressed in Escherichia coli Rosetta2 (DE3) cells assessed as 5-OH-Bz(1,2,4)P3 product formation at 100 uM measured upto 4 hrs by fluorescence based HPLC analysis
[7] = target: T1, Phosphatidylinositol 3,4,5-trisphosphate 5-phosphatase 2 (Homo sapiens); assay: Substrate activity at recombinant human N-terminal His-tagged SHIP2 (419 to 832 residues) expressed in Escherichia coli Rosetta2 (DE3) cells assessed as 5-OH-Bz(1,2,4)P3 product formation at 100 uM incubated for 2 hrs in presence of AS1949490 by fluorescence based HPLC analysis
[8] = target: T1, Phosphatidylinositol 3,4,5-trisphosphate 5-phosphatase 2 (Homo sapiens); assay: Binding affinity to recombinant human N-terminal His-tagged SHIP2 (419 to 832 residues) expressed in Escherichia coli Rosetta2 (DE3) cells assessed as increase in release of phosphate at 100 uM incubated for 10 mins by phosphate release assay
[9] = target: T1, Phosphatidylinositol 3,4,5-trisphosphate 5-phosphatase 2 (Homo sapiens); assay: Substrate activity at recombinant human N-terminal His-tagged SHIP2 (419 to 832 residues) expressed in Escherichia coli Rosetta2 (DE3) cells assessed as 5-OH-Bz(1,2,4)P3 product formation at 100 uM incubated for 2 hrs in presence of INS(1,3,4,5)P4 by fluorescence based HPLC analysis
[10] = target: T1, Phosphatidylinositol 3,4,5-trisphosphate 5-phosphatase 2 (Homo sapiens); assay: Substrate activity at recombinant human N-terminal His-tagged SHIP2 (419 to 832 residues) expressed in Escherichia coli Rosetta2 (DE3) cells assessed as 1,2-diOH-Bz(3,4)P2 product formation at 100 uM incubated for 2 hrs in presence of AS1949490 by fluorescence based HPLC analysis
[11] = target: T1, Phosphatidylinositol 3,4,5-trisphosphate 5-phosphatase 2 (Homo sapiens); assay: Substrate activity at recombinant human N-terminal His-tagged SHIP2 (419 to 832 residues) expressed in Escherichia coli Rosetta2 (DE3) cells assessed as 1,3-Di-OH-Bz(2,4)P2 product formation at 100 uM incubated for 2 hrs in presence of AS1949490 by fluorescence based HPLC analysis
[12] = target: T1, Phosphatidylinositol 3,4,5-trisphosphate 5-phosphatase 2 (Homo sapiens); assay: Substrate activity at recombinant human N-terminal His-tagged SHIP2 (419 to 832 residues) expressed in Escherichia coli Rosetta2 (DE3) cells assessed as 3-OH-Bz(1,2,4)P3 product formation at 100 uM incubated for 2 hrs in presence of AS1949490 by fluorescence based HPLC analysis
[13] = target: Type II inositol 1,4,5-trisphosphate 5-phosphatase (Homo sapiens, UniProt P32019); assay: Inhibition of recombinant human C-terminal His-tagged INPP5B (259 to 563 residues) expressed in Escherichia coli BL21 (DE3) incubated for 5 mins using Ins(1,4,5)P3 as substrate by malachite green reagent based phosphate assay
[14] = target: T3, Phosphatidylinositol 3,4,5-trisphosphate 5-phosphatase 2; assay: Displacement of Ins(1,3,4,5)P4 from recombinant human N-terminal His-tagged SHIP2 (419 to 832 residues) expressed in Escherichia coli BL21 (DE3)

Chain of Type II inositol 1,4,5-trisphosphate 5-phosphatase (P32019 whole entry, the tested form may be a part): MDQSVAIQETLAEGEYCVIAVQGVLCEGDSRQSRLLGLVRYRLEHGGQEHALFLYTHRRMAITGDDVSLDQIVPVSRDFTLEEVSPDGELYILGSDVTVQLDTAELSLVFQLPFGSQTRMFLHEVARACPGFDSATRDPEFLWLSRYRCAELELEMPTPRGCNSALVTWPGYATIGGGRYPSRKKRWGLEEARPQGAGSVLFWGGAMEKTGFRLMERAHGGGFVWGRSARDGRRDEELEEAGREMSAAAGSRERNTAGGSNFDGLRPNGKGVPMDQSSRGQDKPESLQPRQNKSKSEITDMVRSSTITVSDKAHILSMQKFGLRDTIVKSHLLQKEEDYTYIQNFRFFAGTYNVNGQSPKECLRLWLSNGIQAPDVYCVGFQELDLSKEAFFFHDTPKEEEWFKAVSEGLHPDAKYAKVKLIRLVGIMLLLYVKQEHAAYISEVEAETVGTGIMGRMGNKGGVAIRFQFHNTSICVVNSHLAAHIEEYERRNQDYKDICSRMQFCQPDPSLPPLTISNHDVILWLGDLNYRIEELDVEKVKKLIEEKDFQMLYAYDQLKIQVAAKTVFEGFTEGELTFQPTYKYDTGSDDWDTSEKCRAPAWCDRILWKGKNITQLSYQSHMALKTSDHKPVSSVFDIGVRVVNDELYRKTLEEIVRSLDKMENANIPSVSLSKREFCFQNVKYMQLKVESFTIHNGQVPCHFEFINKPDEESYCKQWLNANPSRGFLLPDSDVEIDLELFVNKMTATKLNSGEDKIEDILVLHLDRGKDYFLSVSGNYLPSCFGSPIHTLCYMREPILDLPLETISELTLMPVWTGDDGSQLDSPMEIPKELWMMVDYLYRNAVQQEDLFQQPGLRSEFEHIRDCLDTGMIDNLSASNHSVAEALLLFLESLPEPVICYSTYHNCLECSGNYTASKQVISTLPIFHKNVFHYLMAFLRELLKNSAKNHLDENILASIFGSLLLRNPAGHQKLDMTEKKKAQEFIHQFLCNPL

SMILES	IC50 [2]	IC50 [3]	Activity [8]	also measured
O=P(O)(O)Oc1cc(OP(=O)(O)O)c(OP(=O)(O)O)cc1OP(=O)(O)O	4 µM	1.02 µM	Active	Activity [1]: Active; Activity [4]: Active; Activity [5]: Active; Activity [6]: Active; Activity [7]: inactive; Activity [9]: Active
O=P(O)(O)Oc1ccc(OP(=O)(O)O)c(OP(=O)(O)O)c1O	–	–	–	Activity [10]: Active; Activity [11]: inactive
O=P(O)(O)Oc1ccc(OP(=O)(O)O)c(OP(=O)(O)O)c1OP(=O)(O)O	98 µM	2.78 µM	Active	Activity [10]: Active; Activity [12]: inactive
O=P(O)(O)Oc1ccc(OP(=O)(O)O)c(OP(=O)(O)O)c1	14 µM	7.02 µM	Active	–
O=P(O)(O)Oc1cccc(OP(=O)(O)O)c1OP(=O)(O)O	86 µM	14.2 µM	Active	IC50 [13]: 33.5 µM; IC50 [14]: > 1000 µM
O=P(O)(O)Oc1cc(OP(=O)(O)O)c(OP(=O)(O)O)c(OP(=O)(O)O)c1	78 µM	1.01 µM	Active	–
O=P(O)(O)Oc1cc(OP(=O)(O)O)cc(OP(=O)(O)O)c1	16 µM	11.3 µM	Active	–
